Test results: ChEMBL document CHEMBL4177590, “Design, synthesis and biological evaluation of WZ4002 analogues as EGFR inhibitors” (Bioorg Med Chem Lett, 2017)

Key:
NCI-H460 [1] = assay: Potency index, ratio of WZ4002 IC50 to compound IC50 for human NCI-H460 cells; type: functional
NCI-H460 [2] = assay: Potency index, ratio of gefitinib IC50 to compound IC50 for human NCI-H460 cells; type: functional

Question: Which results are given for `COc1cc(N2CCN(C)CC2)ccc1Nc1ncc(Cl)c(Oc2ccccc2NC(=O)CCO)n1`?
Answer: Ratio IC50 (NCI-H460 [1]): 6 - 10; Ratio IC50 (NCI-H460 [2]): 6 - 10

Question: For `COc1cc(N2CCN(C)CC2)ccc1Nc1ncc(Cl)c(Oc2ccccc2NC(=O)CO)n1`, which “Ratio IC50” value (NCI-H460 [1]) is on record?
Answer: 6 - 10

Question: What about the “Ratio IC50” value (NCI-H460 [2]) of the same compound?
Answer: 6 - 10

Question: Which results are given for `COc1cc(N2CCN(C)CC2)ccc1Nc1ncc(Cl)c(Oc2ccccc2NC(=O)COCc2ccccc2)n1`?
Answer: Ratio IC50 (NCI-H460 [1]): 6 - 10; Ratio IC50 (NCI-H460 [2]): 6 - 10

Question: How did the “Ratio IC50” value (NCI-H460 [1]) turn out when `COc1cc(N2CCN(C)CC2)ccc1Nc1ncc(Cl)c(Oc2ccccc2NC(=O)CCOCc2ccccc2)n1` was run?
Answer: 6 - 10

Question: And the “Ratio IC50” value (NCI-H460 [2])?
Answer: 6 - 10
